According to PMC5907623 (Cancer Chemotherapy and Pharmacology, 2018):

How the values were obtained:
[1] = Part A: steady-state PK of AZD5363 tablet versus capsule, partially fasted, in patients with advanced solid malignancies; assay type: in vivo, human
Protocol: PK parameters were assessed on the fourth day of Week 1 and Week 2 (i.e. on Day 4 and Day 11). […] In addition, pre-dose samples were drawn on Day 8 in Part B to verify that a washout period of 3.5 days was adequate for AZD5363. […] Following the addition of internal standard ([^13C6]AZ12886380), calibration, quality control (QC) and study samples (25 µL) were processed by solid-phase extraction then assayed for AZD5363 by liquid chromatography–tandem mass spectrometry. […] All trial samples were analysed within the known stability period for AZD5363 and all a priori assay acceptance criteria were met, in accordance with regulatory guidance. […] PK parameters were derived using non-compartmental methods (Phoenix® WinNonlin®). Plasma concentration–time profiles were analysed to determine Cmax, Cmin and tmax, while AUCτ was determined from application of the linear-up/log-down trapezoidal rule. […] The statistical analysis for estimating the food and capsule effect was based on analysing log-transformed PK parameters AUCτ and Cmax using a fixed-effects model with terms for patient and treatment only. […] Other PK parameters are presented descriptively.

[2] = Part B: effect of food (overnight fast versus standardized meal) on steady-state PK of AZD5363 tablet in patients; assay type: in vivo, human; conditions: for AUCτ, Gmean (CV%) / Cmax, Gmean (CV%) / Cmin, Gmean (CV%) / tmax, median (range): tablet 480 mg bid, steady state, N = 9
Protocol: (§1) Patients had been fasting overnight prior to the breakfast and no further food was permitted for 4 h post-dose.
The bioanalytical method used to generate AZD5363 plasma concentration data for the derivation of PK parameters for the study had been previously validated, according to regulatory guidance, by Covance UK Ltd on behalf of AstraZeneca. Following the addition of internal standard ([^13C6]AZ12886380), calibration, quality control (QC) and study samples (25 µL) were processed by solid-phase extraction then assayed for AZD5363 by liquid chromatography–tandem mass spectrometry. […] All trial samples were analysed within the known stability period for AZD5363 and all a priori assay acceptance criteria were met, in accordance with regulatory guidance.
PK parameters were derived using non-compartmental methods (Phoenix® WinNonlin®). Plasma concentration–time profiles were analysed to determine Cmax, Cmin and tmax, while AUCτ was determined from application of the linear-up/log-down trapezoidal rule.
The statistical analysis for estimating the food and capsule effect was based on analysing log-transformed PK parameters AUCτ and Cmax using a fixed-effects model with terms for patient and treatment only. All statistical calculations and analyses were performed with SAS® software, version 9.1.3 or higher. Other PK parameters are presented descriptively.

[3] = Part A: safety and tolerability (adverse events, CTCAE v4.0) of AZD5363 tablet and capsule; assay type: in vivo, human
Protocol: PK parameters were assessed on the fourth day of Week 1 and Week 2 (i.e. on Day 4 and Day 11). […] Any AE occurring after the first dose of study treatment and up to 28 days after the last dose of study treatment was included in the AE summaries. The safety analysis set comprised all patients who received at least one dose of AZD5363. All safety data are presented descriptively.

[4] = Part B: safety and tolerability (adverse events, CTCAE v4.0) of AZD5363 tablet, fasted versus fed; assay type: in vivo, human; conditions: for Abdominal pain, All / Abdominal pain, Grade ≥ 3 / Anaemia, All / Anaemia, Grade ≥ 3 / Any AE (causally related), All / Any AE (causally related), Grade ≥ 3 / Any AE (irrespective of causality), All / Any AE (irrespective of causality), Grade ≥ 3 / Diarrhoea, All / Diarrhoea, Grade ≥ 3 / Hyperglycaemia, All / Hyperglycaemia, Grade ≥ 3 / Hypokalaemia, All / Hypokalaemia, Grade ≥ 3 / Pneumonia, All / Pneumonia, Grade ≥ 3 / Rash macular, All / Rash macular, Grade ≥ 3 / Rash maculopapular, All / Rash maculopapular, Grade ≥ 3 / Rash papular, All / Rash papular, Grade ≥ 3 / Skin discolouration, All / Skin discolouration, Grade ≥ 3: tablet
Protocol: as §1
Safety assessments throughout the study encompassed the incidence and severity of AEs (graded according to Common Terminology Criteria for Adverse Events [CTCAE] version 4.0), in addition to laboratory parameters (haematology, clinical chemistry, urinalysis), physical examination, 12-lead electrocardiography (ECG), and vital signs. To assess safety in the fed versus fasted state, the period during and just after the fasted day was considered relevant to the fasted dose (Days 4–7), and similarly, the fed day and subsequent days were considered relevant to the fed state (Days 11–14). Any AE occurring after the first dose of study treatment and up to 28 days after the last dose of study treatment was included in the AE summaries.
The safety analysis set comprised all patients who received at least one dose of AZD5363. All safety data are presented descriptively.

[5] = parameters: method as in PMID 29066505; conditions: cited from earlier work
[6] = Day 11, fed (standardized meal)
[7] = tablet, N = 9, 90% CI where printed in brackets
[8] = Day 15 onward, partially fasted, N = 12

## 4-amino-N-[(1S)-1-(4-chlorophenyl)-3-hydroxypropyl]-1-(7H-pyrrolo[2,3-d]pyrimidin-4-yl)piperidine-4-carboxamide [AZD5363]
[1]; Part A, estimated
  Intra-patient variability for AUCτ: 20%
  Intra-patient variability for Cmax: 22%
[1]; Parts A and B
  Intra-subject variability in AUCτ and Cmax: around 20 % CV
[2]; Day 8, 3 days after the last dose on Day 4
  Pre-dose plasma concentration, geometric least-squares mean: 3.34 ng/mL
[2]; Day 11
  Average steady-state concentration over the 12-h dosing interval (geometric mean AUCτ/12): 678 ng/mL
[2]; Day 4, overnight fasted
  AUCτ, Gmean (CV%): 9116 (16.8) h ng/mL
  Cmax, Gmean (CV%): 1842 (31.1) ng/mL
  Cmin, Gmean (CV%): 218.5 (30.3) ng/mL
  tmax, median (range): 0.6 (0.5–4) h
[2]; [6]
  AUCτ, Gmean (CV%): 8136 (33.9) h ng/mL
  Cmax, Gmean (CV%): 1239 (23.3) ng/mL
  Cmin, Gmean (CV%): 262.3 (58.6) ng/mL
  tmax, median (range): 2.0 (2–4.3) h
[2]; [7]
  AUCτ GLSM ratio fed:fasted: 0.89
  Cmax GLSM ratio fed:fasted: 0.67
[3]
  Changes in ECG findings, vital signs or physical examinations: no clinically significant changes
[3]; 7 of 18 patients, in two the events occurred before start of treatment
  Patients with serious AEs (SAEs): 38.9%
[3]; majority of patients, similar for tablet and capsule
  Plasma glucose (with plasma insulin and C-peptide): Elevations in plasma glucose
[4]; in six patients of 12
  Number of SAEs: 11
[4]; [8]
  Abdominal pain, All: 1 (8.3) Number of patients (%)
  Abdominal pain, Grade ≥ 3: 1 (8.3) Number of patients (%)
  Anaemia, All: 1 (8.3) Number of patients (%)
  Anaemia, Grade ≥ 3: 1 (8.3) Number of patients (%)
  Any AE (causally related), All: 10 (83.3) Number of patients (%)
  Any AE (causally related), Grade ≥ 3: 5 (41.7) Number of patients (%)
  Any AE (irrespective of causality), All: 12 (100.0) Number of patients (%)
  Any AE (irrespective of causality), Grade ≥ 3: 7 (58.3) Number of patients (%)
  Diarrhoea, All: 8 (66.7) Number of patients (%)
  Diarrhoea, Grade ≥ 3: 1 (8.3) Number of patients (%)
  Hyperglycaemia, All: 6 (50.0) Number of patients (%)
  Hyperglycaemia, Grade ≥ 3: 5 (41.7) Number of patients (%)
  Hypokalaemia, All: 1 (8.3) Number of patients (%)
  Hypokalaemia, Grade ≥ 3: 1 (8.3) Number of patients (%)
  Pneumonia, All: 1 (8.3) Number of patients (%)
  Pneumonia, Grade ≥ 3: 1 (8.3) Number of patients (%)
  Rash macular, All: 1 (8.3) Number of patients (%)
  Rash macular, Grade ≥ 3: 0 Number of patients (%)
  Rash maculopapular, All: 2 (16.7) Number of patients (%)
  Rash maculopapular, Grade ≥ 3: 2 (16.7) Number of patients (%)
  Rash papular, All: 0 Number of patients (%)
  Rash papular, Grade ≥ 3: 0 Number of patients (%)
  Skin discolouration, All: 1 (8.3) Number of patients (%)
  Skin discolouration, Grade ≥ 3: 1 (8.3) Number of patients (%)
[4]; Days 4–7, fasted dose, N = 12
  Abdominal pain, All: 0 Number of patients (%)
  Abdominal pain, Grade ≥ 3: 0 Number of patients (%)
  Anaemia, All: 1 (8.3) Number of patients (%)
  Anaemia, Grade ≥ 3: 0 Number of patients (%)
  Any AE (causally related), All: 4 (33.3) Number of patients (%)
  Any AE (causally related), Grade ≥ 3: 2 (16.7) Number of patients (%)
  Any AE (irrespective of causality), All: 5 (41.7) Number of patients (%)
  Any AE (irrespective of causality), Grade ≥ 3: 2 (16.7) Number of patients (%)
  Diarrhoea, All: 2 (16.7) Number of patients (%)
  Diarrhoea, Grade ≥ 3: 1 (8.3) Number of patients (%)
  Hyperglycaemia, All: 1 (8.3) Number of patients (%)
  Hyperglycaemia, Grade ≥ 3: 1 (8.3) Number of patients (%)
  Hypokalaemia, All: 0 Number of patients (%)
  Hypokalaemia, Grade ≥ 3: 0 Number of patients (%)
  Pneumonia, All: 0 Number of patients (%)
  Pneumonia, Grade ≥ 3: 0 Number of patients (%)
  Rash macular, All: 0 Number of patients (%)
  Rash macular, Grade ≥ 3: 0 Number of patients (%)
  Rash maculopapular, All: 1 (8.3) Number of patients (%)
  Rash maculopapular, Grade ≥ 3: 0 Number of patients (%)
  Rash papular, All: 0 Number of patients (%)
  Rash papular, Grade ≥ 3: 0 Number of patients (%)
  Skin discolouration, All: 0 Number of patients (%)
  Skin discolouration, Grade ≥ 3: 0 Number of patients (%)
[4]; Days 11–14, fed dose, N = 10
  Abdominal pain, All: 0 Number of patients (%)
  Abdominal pain, Grade ≥ 3: 0 Number of patients (%)
  Anaemia, All: 1 (10.0) Number of patients (%)
  Anaemia, Grade ≥ 3: 0 Number of patients (%)
  Any AE (causally related), All: 5 (50.0) Number of patients (%)
  Any AE (causally related), Grade ≥ 3: 4 (40.0) Number of patients (%)
  Any AE (irrespective of causality), All: 6 (60.0) Number of patients (%)
  Any AE (irrespective of causality), Grade ≥ 3: 4 (40.0) Number of patients (%)
  Diarrhoea, All: 3 (30.0) Number of patients (%)
  Diarrhoea, Grade ≥ 3: 2 (20.0) Number of patients (%)
  Hyperglycaemia, All: 1 (10.0) Number of patients (%)
  Hyperglycaemia, Grade ≥ 3: 1 (10.0) Number of patients (%)
  Hypokalaemia, All: 0 Number of patients (%)
  Hypokalaemia, Grade ≥ 3: 0 Number of patients (%)
  Pneumonia, All: 0 Number of patients (%)
  Pneumonia, Grade ≥ 3: 0 Number of patients (%)
  Rash macular, All: 1 (10.0) Number of patients (%)
  Rash macular, Grade ≥ 3: 1 (10.0) Number of patients (%)
  Rash maculopapular, All: 2 (20.0) Number of patients (%)
  Rash maculopapular, Grade ≥ 3: 2 (20.0) Number of patients (%)
  Rash papular, All: 1 (10.0) Number of patients (%)
  Rash papular, Grade ≥ 3: 1 (10.0) Number of patients (%)
  Skin discolouration, All: 0 Number of patients (%)
  Skin discolouration, Grade ≥ 3: 0 Number of patients (%)
[4]; up to 4 h post-dose
  Plasma glucose during the fasted period: no indication of glucose elevation
[5]; dose range 80–800 mg
  Dose proportionality of plasma exposure: approximately dose proportional
[5]; patients
  Dose excreted in urine as unchanged drug: less than 10%
  Terminal half life: approximately 10 h
